Marks after values point to notes of the source that are not given here.
Key:
[1] = system: Neisseria meningitides ATCC 1302; assay: disk diffusion assay, inhibition zone; assay type: cell-based; conditions: N. meningitides
[2] = biological effects of compound 4 alone in mice (not infected);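 for daily body weight: compound given twice daily to the uninfected group for 2 weeks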; assay type: in vivo; design: Total Protein Mean ± SE: unit not given here; conditions: for daily body weight / % change in daily body weight / Food consumption / Mortality / Water consumption: i.v. 12 mg/kg then 6 mg/ml
Experimental: The experiment was performed in Experimental Animal Care Center (EACC), College of Pharmacy, King Saud University, Riyadh. Fifty Albino male mice, weighing nearly 30±2 gram were used. The mice were arranged in five groups, each including ten mice caged together, given water, and feed ad libitum. […] The group treated with standard drug (fluconazole) was infected intravenously with 0.2 ml of C. albicans suspension (10^6 CFU/mouse) and treated (orally) by 12 mg/kg of fluconazole (loading dose) on the first day followed by 6 mg/ml for 2 weeks.
The biological parameters included daily body weight (gm), mortality (%), food consumption (g/day/mouse), water consumption (ml/day/mouse), serum glutamic oxaloacetic transaminase [SGOT(AST) (U/L)], serum glutamic-pyruvic transaminase [SGPT(ALT)(U/L)], alkaline phosphatase (U/L), gamma-glutamyl transferase (GGT) (U/L), bilirubin (mg/dl)], cholesterol (mg/dl), triglycerides (mg/dl), high-density lipoprotein (HDL) (mg/dl), very-low-density lipoprotein (VLDL) (mg/dl), low-density lipoprotein (LDL) (mg/dl), lactate dehydrogenase (LDH) (U/L), glucose (mg/dl), total protein (mg/dl), malondialdehyde (MDA) (nmol/g), nonprotein sulfyhydryl (NP-SH) (nmol/g). […] SGOT (AST), SGPT (ALT), ALP, GGT, bilirubin LDH and total protein were estimated using Reflotron Plus Analyzer and Roche kits (Roche Diagnostics GmbH, Mannheim Germany) and United diagnostic kits assay. Hematological tests were performed by Mindray BC-2800VET auto Hematology Analyzer.

[3] = blood, uninfected mice, i.v. 12 mg/kg then 6 mg/ml for 2 weeks
[4] = liver tissue, uninfected mice, i.v. 12 mg/kg then 6 mg/ml for 2 weeks
[5] = serum, uninfected mice, i.v. 12 mg/kg then 6 mg/ml for 2 weeks

**Q.** What does the source list for `CCOC(=O)CSC(=S)SCC(=O)OCC` [Compound 4, diethyl 2,2′-(thiocarbonylbis(sulfanediyl))diacetate]?
**A.** biological activity, in words [1]: very good; Inhibition zone diameter ([1]; 4 mg/disk, soluble water compound 4): 22.6 ± 0.5 C mm; Eosinophils Mean ± SE [2, 3]: 2.38 ± 0.09%; HCT Mean ± SE [2, 3]: 45.9 ± 1.51^a; HGB Mean ± SE [2, 3]: 12.4 ± 0.18^a g/dL; Lymphocytes Mean ± SE [2, 3]: 4.8 ± 0.09%; MCH Mean ± SE [2, 3]: 39.0 ± 1.0 pg; MCHC Mean ± SE [2, 3]: 32.6 ± 0.9 g/dL; MCV Mean ± SE [2, 3]: 87.31 ± 1.74 fL; Monocytes Mean ± SE [2, 3]: 1.15 ± 0.01%; Neutrophils Mean ± SE [2, 3]: 33.3 ± 1.1%; PLT Mean ± SE [2, 3]: 670.7 ± 15.3 10^3/mm^3; RBC Mean ± SE [2, 3]: 9.26 ± 0.1 10^6/mm^3; WBC Mean ± SE [2, 3]: 8795 ± 45.9 Cell/mm^3; MDA [2, 4]: 0.94 ± 0.03***^a nmol/g; NP-SH [2, 4]: 6.88 ± 0.22***^a nmol/g; Total Protein [2, 4]: 129.04 ± 2.80**^a g/l; side effects on food and water consumption comparing with control group ([2]; mice): no negative side effects; Alkaline phosphatase Mean ± SE ([2]; serum, uninfected mice, 12 mg/kg then 6 mg/ml for 2 weeks): 286.62 ± 4.67^a U/L; Bilirubin Mean ± SE [2, 5]: 0.57 ± 0.017^a mg/dl; Cholesterol Mean ± SE [2, 5]: 78.68 ± 3.2 mg/dL; GGT Mean ± SE [2, 5]: 4.40 ± 0.13^a U/L; Glucose level Mean ± SE [2, 5]: 96.38 ± 3.62**^a mg/dl; HDL Mean ± SE [2, 5]: 41.6 ± 2.1^a mg/dl; LDH Mean ± SE [2, 5]: 162.50 ± 1.84^a U/L; LDL Mean ± SE [2, 5]: 23.3 ± 3.0 mg/dL; SGOT(AST) Mean ± SE [2, 5]: 89.07 ± 3.82 U/L; SGPT(ALT) Mean ± SE [2, 5]: 28.67 ± 1.15^a U/L; Total Protein Mean ± SE [2, 5]: 7.66 ± 0.18; Triglycerides Mean ± SE [2, 5]: 68.5 ± 1.6 mg/dL; VLDL Mean ± SE [2, 5]: 13.7 ± 0.3 mg/dL; mortality in the group treated only with the compound, in words ([2]; uninfected mice): close to the control group; daily body weight ([2]; uninfected mice, day 0): 20.20 ± 0.38 gm; % change in daily body weight ([2]; uninfected mice, day 1): 0.49%; Food consumption ([2]; uninfected mice, day 1): 4.2 g/day/mice; Mortality ([2]; uninfected mice, day 1): 0%; Water consumption ([2]; uninfected mice, day 1): 5.2 g/day/mice; daily body weight ([2]; uninfected mice, day 1): 20.30 ± 0.36 gm; % change in daily body weight ([2]; uninfected mice, day 2): 9.40%; Food consumption ([2]; uninfected mice, day 2): 4.5 g/day/mice; Mortality ([2]; uninfected mice, day 2): 0%; Water consumption ([2]; uninfected mice, day 2): 5.2 g/day/mice; daily body weight ([2]; uninfected mice, day 2): 22.10 ± 0.23 gm; % change in daily body weight ([2]; uninfected mice, day 3): 16.83%; Food consumption ([2]; uninfected mice, day 3): 4.4 g/day/mice; Mortality ([2]; uninfected mice, day 3): 0%; Water consumption ([2]; uninfected mice, day 3): 5.4 g/day/mice; daily body weight ([2]; uninfected mice, day 3): 23.60 ± 0.33 gm; % change in daily body weight ([2]; uninfected mice, day 4): 19.80%; Food consumption ([2]; uninfected mice, day 4): 4.5 g/day/mice; Mortality ([2]; uninfected mice, day 4): 0%; Water consumption ([2]; uninfected mice, day 4): 5.5 g/day/mice; daily body weight ([2]; uninfected mice, day 4): 24.20 ± 0.20 gm; % change in daily body weight ([2]; uninfected mice, day 5): 23.26%; Food consumption ([2]; uninfected mice, day 5): 4.6 g/day/mice; Mortality ([2]; uninfected mice, day 5): 0%; Water consumption ([2]; uninfected mice, day 5): 5.5 g/day/mice; daily body weight ([2]; uninfected mice, day 5): 24.90 ± 0.23 gm; % change in daily body weight ([2]; uninfected mice, day 6): 27.22%; Food consumption ([2]; uninfected mice, day 6): 4.6 g/day/mice; Mortality ([2]; uninfected mice, day 6): 0%; Water consumption ([2]; uninfected mice, day 6): 5.7 g/day/mice; daily body weight ([2]; uninfected mice, day 6): 25.70 ± 0.21 gm; % change in daily body weight ([2]; uninfected mice, day 7): 29.70%; Food consumption ([2]; uninfected mice, day 7): 4.8 g/day/mice; Mortality ([2]; uninfected mice, day 7): 0%; Water consumption ([2]; uninfected mice, day 7): 5.8 g/day/mice; daily body weight ([2]; uninfected mice, day 7): 26.20 ± 0.24 gm; % change in daily body weight ([2]; uninfected mice, day 8): 32.17%; Food consumption ([2]; uninfected mice, day 8): 4.9 g/day/mice; Mortality ([2]; uninfected mice, day 8): 0%; Water consumption ([2]; uninfected mice, day 8): 5.8 g/day/mice; daily body weight ([2]; uninfected mice, day 8): 26.70 ± 0.26 gm; % change in daily body weight ([2]; uninfected mice, day 9): 32.67%; Food consumption ([2]; uninfected mice, day 9): 4.9 g/day/mice; Mortality ([2]; uninfected mice, day 9): 0%; Water consumption ([2]; uninfected mice, day 9): 5.9 g/day/mice; daily body weight ([2]; uninfected mice, day 9): 26.80 ± 0.29 gm; % change in daily body weight ([2]; uninfected mice, day 10): 33.66%; Food consumption ([2]; uninfected mice, day 10): 5.1 g/day/mice; Mortality ([2]; uninfected mice, day 10): 0%; Water consumption ([2]; uninfected mice, day 10): 5.9 g/day/mice; daily body weight ([2]; uninfected mice, day 10): 27.00 ± 0.27 gm; % change in daily body weight ([2]; uninfected mice, day 11): 35.64%; Food consumption ([2]; uninfected mice, day 11): 5.2 g/day/mice; Mortality ([2]; uninfected mice, day 11): 0%; Water consumption ([2]; uninfected mice, day 11): 6.0 g/day/mice; daily body weight ([2]; uninfected mice, day 11): 27.40 ± 0.35 gm; % change in daily body weight ([2]; uninfected mice, day 12): 36.96%; Food consumption ([2]; uninfected mice, day 12): 6.0 g/day/mice; Mortality ([2]; uninfected mice, day 12): 0%; Water consumption ([2]; uninfected mice, day 12): 6.11 g/day/mice; daily body weight ([2]; uninfected mice, day 12): 27.66 ± 0.28 gm; % change in daily body weight ([2]; uninfected mice, day 13): 35.51%; Food consumption ([2]; uninfected mice, day 13): 6.0 g/day/mice; Mortality ([2]; uninfected mice, day 13): 10%; Water consumption ([2]; uninfected mice, day 13): 6.2 g/day/mice; daily body weight ([2]; uninfected mice, day 13): 27.77 ± 0.27 gm; % change in daily body weight ([2]; uninfected mice, day 14): 38.61%; Food consumption ([2]; uninfected mice, day 14): 6.1 g/day/mice; Mortality ([2]; uninfected mice, day 14): 10%; Water consumption ([2]; uninfected mice, day 14): 6.2 g/day/mice; daily body weight ([2]; uninfected mice, day 14): 28.00 ± 0.37 gm; % change in daily body weight ([2]; uninfected mice, day 15): 41.70%; Food consumption ([2]; uninfected mice, day 15): 6.1 g/day/mice; Mortality ([2]; uninfected mice, day 15): 10%; Water consumption ([2]; uninfected mice, day 15): 6.3 g/day/mice; daily body weight ([2]; uninfected mice, day 15): 28.62 ± 0.41 gm
